We go through seven compounds from patent US20070117784A1, “Treatment of hyperproliferative diseases with anthraquinones” (Novacea, Inc., priority 2005, published 2007).

The test system of one series is HCT116. The series can be described thus: MTS cytotoxicity assay, HCT116. The format is cell-based. The following applies: 24 h exposure. (In general: Formazan colour is commonly taken as a measure of viable cells.)
A further series has as its system HL-60. Kind of series: MTS cytotoxicity assay, HL-60. The following applies: Homo sapiens, HL-60, 24 h.
The test system of a further series is CCRF-CEM. Kind of series: MTS cytotoxicity assay, CCRF-CEM. The following applies: Homo sapiens, 24 h.
The test system of another series is KB-3. The series can be described thus: MTS cytotoxicity assay, KB-3. The format is cell-based. The following applies: KB3; KB-3 (radiation-resistant); normoxic; 24 h exposure.
A further series relates to ARH177. Kind of series: MTS cytotoxicity assay, ARH177. The settings on record: 24 h.
In another series the test system is K562. Kind of series: MTS cytotoxicity assay, K562. The settings on record: Homo sapiens, K562, 24 h.
Another series relates to P388. Kind of series: MTS cytotoxicity assay, P388. The settings on record: Mus musculus, P388, 24 h.
The next series relates to FaDu. Kind of series: MTS cytotoxicity assay, FaDu. The format is cell-based. The following applies: Homo sapiens, normoxic, 24 h exposure.
A further series deals with Ramos. Kind of series: MTS cytotoxicity assay, Ramos. The settings on record: Homo sapiens, 24 h.
The next series has as its system MOLT-4. The series can be described thus: MTS cytotoxicity assay, MOLT-4. The settings on record: Homo sapiens, MOLT-4, 24 h.
In another series the test system is HT-29. The series can be described thus: MTS cytotoxicity assay, HT-29. The format is cell-based. The following applies: normoxic, 24 h exposure.
Another series relates to KG1a. Kind of series: MTS cytotoxicity assay, KG1a. The following applies: Homo sapiens, KG-1a, 24 h.
The conditions of series [1]: mouse, in vivo.
For series [2] the following is noted: single 20 mg/kg dose of AQ4N; previous studies; cited from earlier work.
Another series deals with RPMI8226. Kind of series: MTS cytotoxicity assay, RPMI8226. The following applies: Homo sapiens, RPMI-8226, 24 h.
In the next series the test system is Raji. The series can be described thus: MTS cytotoxicity assay, Raji. The following applies: Homo sapiens, 24 h.
Another series relates to U118MG. The series can be described thus: MTS cytotoxicity assay, U118MG. The format is cell-based. The following applies: Homo sapiens, U-118-MG, normoxic, 24 h exposure.
Another series has as its system Hep3B2.1-7. Kind of series: MTS cytotoxicity assay, Hep3B2.1-7. The class given is cell-based. The settings on record: normoxic, 24 h exposure.
Another series has as its system BXPC-3. The series can be described thus: MTS cytotoxicity assay, BXPC-3. The following applies: Homo sapiens, BXPC-3, 24 h.
A further series concerns B16-F10. Kind of series: MTS cytotoxicity assay, B16-F10. The following applies: Mus musculus, normoxic, 24 h exposure. The format is cell-based, human.
In the next series the test system is Panc-1. The series can be described thus: MTS cytotoxicity assay, Panc-1. The settings on record: Homo sapiens, PANC-1, 24 h.
The test system of the next series is RPMI8226/Dox. The series can be described thus: MTS cytotoxicity assay, RPMI8226/Dox. The following applies: Homo sapiens, RPMI-8226, 24 h.
The subject of a further series is LS174T. The series can be described thus: MTS cytotoxicity assay, LS174T. The following applies: normoxic, 24 h exposure. The class given is cell-based.
A further series relates to A375-SM. The series can be described thus: MTS cytotoxicity assay, A375-SM. The following applies: Homo sapiens, normoxic, 24 h exposure. The format is cell-based, mouse.
Another series has as its system CCRF-CEM/VLB. The series can be described thus: MTS cytotoxicity assay, CCRF-CEM/VLB. The following applies: Homo sapiens, 24 h.
Series [3] relates to bladder cancer cell lines. The settings on record: previous data; cited from earlier work.
The test system of the next series is LoVo. Kind of series: MTS cytotoxicity assay, LoVo. The settings on record: normoxic, 24 h exposure. The class given is cell-based.
Series [4] has as its system MO59K cells (glioblastoma). The series can be described thus: Colony formation assay, combination with temozolomide and radiation.
A further series relates to MiaPaCa. The series can be described thus: MTS cytotoxicity assay, MiaPaCa. The following applies: Homo sapiens, MIA PaCa-2, 24 h.
A further series deals with Namalwa. Kind of series: MTS cytotoxicity assay, Namalwa. The settings on record: Homo sapiens, 24 h.
A further series relates to KB. Kind of series: MTS cytotoxicity assay, KB. The following applies: Homo sapiens, normoxic, 24 h exposure. The format is cell-based.
Another series concerns U251. Kind of series: MTS cytotoxicity assay, U251. The settings on record: Homo sapiens, U-251, normoxic, 24 h exposure. The class given is cell-based.
A further series concerns Daudi. The series can be described thus: MTS cytotoxicity assay, Daudi. The following applies: Homo sapiens, 24 h.
A further series has as its system L1210. The series can be described thus: MTS cytotoxicity assay, L1210. The settings on record: Mus musculus, L1210, 24 h.
Another series has as its system U87MG. Kind of series: MTS cytotoxicity assay, U87MG. The class given is cell-based. The settings on record: Homo sapiens, U-87 MG, normoxic, 24 h exposure.
In another series the test system is L5178Y. The series can be described thus: MTS cytotoxicity assay, L5178Y. The following applies: Mus musculus, 24 h.
The test system of series [5] is BxPC-3 pancreatic carcinoma (orthotopic). The series can be described thus: Orthotopic BxPC-3 pancreatic carcinoma model, survival. The settings on record: BxPC-3 ot; gemcitabine treatment; P=0.04.
Series [6] deals with human BxPC-3 pancreatic carcinoma. The series can be described thus: sc BxPC-3 pancreatic xenograft, tumor growth inhibition. The format is in vivo, nude mice. The following applies: BxPC-3 sc. The procedure: Shown are the mean (±SEM) tumor volumes measured from treatment and control groups following tumor challenge. The study was terminated when tumors from the vehicle-treated group reached an average of approximately 2 grams (day 27) and the % TGI was calculated as defined in the text. […] Animals were actively sacrificed when they became moribund from excessive tumor burden.

In the next series the test system is human Panc-1 tumors. The series can be described thus: sc Panc-1 pancreatic xenograft, tumor growth delay. The class given is in vivo, nude mice. The following applies: Panc-1 sc, gemcitabine treatment. As for the experimental part:
Mice were actively sacrificed as a cancer death when their tumors reached 1200 mm^3. Shown are Kaplan-Meier plots summarizing the percentage of the animals remaining in the study as a function of time following tumor inoculation. Treatment outcome was determined from TGD, defined as the increase in median TTE in a treatment group as compared to the control group.
In each case, a range of AQ4N dose schedules were evaluated to determine the optimum dosage for efficacy as a single agent.
In the Panc-1 model, the endpoint of the study was pre-defined to be when tumors reached 1200 mm^3 and treatment outcome was determined from tumor growth delay (TGD). TGD is defined as the increase in median time to endpoint (TTE) in a treatment group as compared to the control group, and expressed in days or as a percentage of the median TTE vs. the control group.

On to `CN(C)CCNc1ccc(NCCN(C)C)c2c1C(=O)c1c(O)ccc(O)c1C2=O` [AQ4, 1,4-bis{[2-(dimethylamino)ethyl]amino}-5,8-dihydroxyanthracene-9,10-dione], for which the IC50 in the series on HCT116 (Homo sapiens, HCT-116, normoxic) was 3.9 µM; in the series with HL-60, 0.01 µM; in the series on CCRF-CEM it was 0.62 µM; in the series with KB-3, 3.3 µM; with ARH177, 0.2 µM; in the series on K562, 0.4 µM. The half-inhibitory concentration (IC50) was 0.01 µM with P388; 0.3 µM in the series on FaDu; 0.008 µM in the series with Ramos; 0.002 µM with MOLT-4; 0.7 µM with HT-29 (Homo sapiens); 0.05 µM in the series with KG1a. Moreover, the IC50 with RPMI8226 amounted to 0.2 µM; in the series with Raji it was 0.2 µM; in the series on U118MG, 1.3 µM; with Hep3B2.1-7, 0.8 µM; in the series with BXPC-3, 1.6 µM; in the series with B16-F10, 0.02 µM. The IC50 in the series on Panc-1 was found to be 0.4 µM; with RPMI8226/Dox it was 1.1 µM; in the series with LS174T (Homo sapiens), 0.95 µM; in the series with A375-SM it was 3.3 µM; in the series on CCRF-CEM/VLB, 0.34 µM; in the series with LoVo (Homo sapiens), 0.21 µM. For the same compound, the IC50 came to 1.6 µM in the series with MiaPaCa; 0.0002 µM in the series on Namalwa; 0.6 µM with KB; 0.6 µM in the series on U251; 0.0046 µM with Daudi; 0.0012 µM with L1210. Also, the IC50 in the series on U87MG is 0.9 µM; in the series on L5178Y, 0.03 µM. The “tumor accumulation vs dose” value in [1] (240 mg/kg) was “dose-dependent fashion”. In addition, the “percent of near maximal tumor levels after 2 hr post-infusion” value in series [1] (2 h) is given as 55-85%. The “percent of conversion occurring by 8 hr” value in series [1] (8 h) was 80-100%. In addition, the “time AQ4 can be detected in tumor tissues” value in series [2] was “at least 2 weeks”. Further, the interaction with radiation result in series [3] is “additive interactions”. Also, in series [4] (48 hr combined treatment, 1.5 Gy at 24 hr, FIG. 24), the “combined cytotoxic effect with temozolomide and radiation” value was “additive and synergistic cytotoxic effects”. In addition, the “combined cytotoxic effect with temozolomide” value in series [4] (48 hr temozolomide, 10-day colony formation, FIG. 23) was “additive and synergistic cytotoxic effects”.

For the compound `CN(C)CCNc1ccc(NCC[N+](C)(C)[O-])c2c1C(=O)c1c(O)ccc(O)c1C2=O` [AQ4M], in series [1], the “tumor level by 8 h” value was “minimal levels by 8 h for most doses” and the “tumor level vs dose at 2 hr” value is reported as “approximately linear with increasing dose”. For the same compound, the “plasma level at 2 hr” value (240 mg/kg AQ4N dose) is reported as “only trace amounts”. In addition, the “metabolite detection in plasma” value (any AQ4N dose or time point) was “undetectable”.

Turning to `CC(=O)O[C@H]1C(=O)[C@@]2(C)[C@H]([C@H](OC(=O)c3ccccc3)[C@]3(O)C[C@H](OC(=O)[C@H](O)[C@@H](NC(=O)c4ccccc4)c4ccccc4)C(C)=C1C3(C)C)[C@]1(OC(C)=O)CO[C@@H]1C[C@@H]2O` [Taxol, reference compound], the half-maximal inhibitory concentration (IC50) turned out to be 19.1 µM in the series with KB-3, 6.5 µM in the series with FaDu, 13.7 µM with Hep3B2.1-7 and 2 µM in the series on KB.

On to `COc1cccc2c1C(=O)c1c(O)c3c(c(O)c1C2=O)C[C@@](O)(C(=O)CO)C[C@@H]3O[C@H]1C[C@H](N)[C@H](O)[C@H](C)O1` [Dox, doxorubicin, reference compound], for which the IC50 with HL-60 turned out to be 0.1 µM; with P388 it was 0.1 µM; with Ramos, 0.0018 µM; in the series on MOLT-4 it was 0.0075 µM; in the series on KG1a it was 0.6 µM; with RPMI8226, 0.1 µM. Also, the IC50 with Raji is 0.0009 µM; in the series on U118MG, 0.03 µM; with RPMI8226/Dox, 54.7 µM; with Namalwa, 0.0074 µM; in the series with U251, 0.03 µM; in the series with Daudi, 0.0005 µM. For the same compound, the IC50 in the series on L1210 was 0.05 µM; with U87MG, 0.4 µM; in the series with L5178Y it was 0.05 µM.

Turning to `Nc1ccn([C@@H]2O[C@H](CO)[C@@H](O)C2(F)F)c(=O)n1` [gemcitabine], in [5], the median survival is recorded as 40 days. The IC50 in the series with BXPC-3 was 0.0595 µM; with Panc-1, 1.7 µM; in the series on MiaPaCa, 0.023 µM. In [6] (gemcitabine treatment, ~day 27), this compound showed a TGI of 51%. The “TGI in comparison to vehicle-treated groups” value in series [6] (single-agent, p<0.001, FIG. 20A) was “significant TGI”. Moreover, the “TGD as percentage of median TTE vs control” value in the series on human Panc-1 tumors is reported as 19%. In the series on human Panc-1 tumors (endpoint 1200 mm^3), this compound yielded a TTE of 34.2 days. Also, in the series with human Panc-1 tumors (non-significant), the “TGD (tumor growth delay)” value turned out to be 5.4 days.

`CCc1c2c(nc3ccc(O)cc13)-c1cc3c(c(=O)n1C2)COC(=O)[C@]3(O)CC` [SN38, 7-ethyl-10-hydro-camptothecin, reference compound]: the IC50 was 0.0484 µM in the series with HCT116 (normoxic), 0.0651 µM in the series with HT-29, 0.0026 µM in the series on LS174T and 0.0006 µM with LoVo.

For `CCC1=C[C@@H]2CN(C1)Cc1c([nH]c3ccccc13)[C@@](C(=O)OC)(c1cc3c(cc1OC)N(C)[C@H]1[C@@](O)(C(=O)OC)[C@H](OC(C)=O)[C@]4(CC)C=CCN5CC[C@]31[C@@H]54)C2` [VLB, vinorelbine, reference compound], the IC50 in the series on CCRF-CEM amounted to 0.01 µM; in the series on CCRF-CEM/VLB it was 1040 µM.

As usually defined, the IC50 is the midpoint of a concentration-inhibition curve. As a reminder, the TGI is the reduction of tumour growth relative to the control group.
